This note sets out measurements from patent publication US11208446B2, “Agents and methods for treating CBP-dependent cancers” (priority 2016, dated 2021).

The structures appear in SMILES notation.

The test system of test [1] is MV411 cells. Put plainly: Flow cytometric analysis of apoptosis (Annexin-V). In kind it is cell-based, human. To be noted: 20 μM, 24 hours. The procedure:
Flow cytometric analysis of Apoptosis. Cells were resuspended to a concentration of 1×10^6 cells were plated in triplicate in a 12-well tissue culture plate. For assessment of annexin V staining, cells were washed with PBS and then resuspended in PBS with Annexin V-APC (BioLegend) and propidium iodide at a dilution of 1:1000. For intracellular detection of cleaved caspase 3, cells were fixed and permeabilized using the BD Cytofix/Cytoperm Fixation/Permeabilization solution according to the manufacturer's instructions (BD Biosciences. Cells were then stained using the Alexa Fluor 647-conjugated anti-active caspase-3 (BD Biosciences) at a dilution of 1:50. Cells were incubated for 30 minutes room temperature in the dark, washed, and then analyzed using the BD LSRFortessa cell analyzer.

For test [2], the system named is MYB-dependent gene expression. The test can be described thus: RNA-seq gene expression after peptide treatment. In kind it is cell-based, human.
Test [3] concerns MYC and BCL2 mRNA expression. Put plainly: RT-qPCR of BCL2 and MYC mRNA normalized to GAPDH. In kind it is cell-based. To be noted: human AML cell lines. The procedure:
Quantitative RT-PCR. RNA was isolated using Trizol reagent according to the manufacturer's instructions (Life Technologies). Complementary DNA was synthesized using the SuperScript III First-Strand Synthesis system according to the manufacturer's instructions (Invitrogen). Quantitative real-time PCR was performed using the KAPA SYBR FAST PCR polymerase with 20 ng template and 200 nM primers, according to the manufacturer's instructions (Kapa Biosystems, Wilmington, Mass., USA). PCR primers are listed below. Ct values were calculated using ROX normalization using the ViiA 7 software (Applied Biosystems).
For orientation: Real-time PCR tracks product formation cycle by cycle.

Test [4] has as its system MV411 cells. Put plainly: CellTiter Glo viability of MV411 cells with ectopic BCL2 expression. It is filed as cell-based, human. To be noted: MV411 cells with MSCV-Ires-GFP BCL2 vector. (In general: Cellular ATP, detected with luciferase, serves as a proxy for viable cell number.)
Test [5] concerns primary MLL-rearranged AML. Put plainly: Primary patient derived xenograft, hCD45 staining of bone marrow. It is filed as in vivo, NSG mice. Conditions: 25 mg/kg daily intraperitoneal, 21 days. The procedure: Mouse studies. All mouse experiments were carried out in accordance with institutional animal protocols. Two hundred thousand primary AML MLL-rearranged leukemia cells were suspended in […] of PBS and transplanted via tail vein injection into 8-week-old sublethally irradiation (200 rad) female NOD.Cg-Prkdc(scid)Il2rg(tm1Wjl)/SzJ mice (The Jackson Laboratory, Bar Harbor, Me., USA). Recipient mice were maintained on antibiotic supplementation in chow (0.025% trimethoprim, 0.124% sulfamethoxazole, Sulfatrim). Three days after transplant, mice were randomly assigned to experimental treatment groups. […]
For orientation: In xenograft studies the graft and the host belong to different species.

A further test concerns the target T1, MYB:CBP complex (Homo sapiens, UniProt Q92793).
T1 construct: endogenous in cells; host or cells: MV411 human AML cells
Put plainly: Dissociation of MYB:CBP complex in AML cells (co-immunoprecipitation). It is filed as cell-based. The procedure:
Co-immunoprecipitation analysis. 7.5 μg of indicated antibodies were conjugated to 1 mg M-270 Epoxy-coated magnetic beads (Invitrogen) according to manufacturer's instructions. 1×10^7 MV411 cells were collected and washed in cold PBS. Washed cell pellets were resuspended in 350 μL cold lysis buffer (50 mM Tris-HCl pH 7.4, 150 mM NaCl, 1 mM EDTA, 1 mM DTT, 0.5% Triton X-100, supplemented with protease inhibitors described above) and incubated on ice for 10 min. Cells were mechanically disrupted using the Covaris […] adaptive focused sonicator at 50 W peak power, 10% duty cycle, 200 cycles per burst at 4° C. for 300 sec. Lysate was clarified by centrifugation for 15 min at 18,000×g at 4° C. Supernatant (cleared lysate) was diluted in 1.05 mL dilution buffer (50 mM Tris-HCl, 150 mM NaCl, 1 mM EDTA, 1 mM DTT, 10% glycerol, supplemented with protease inhibitors described above for a total volume of 1.4 mL. Diluted lysate was added to 1 mg beads, and immunoprecipitation proceeded for 3 h at 4° C. with rotation. Beads were then washed with lysis buffer twice. Proteins were eluted in 20 μL EB buffer (Invitrogen) for 5 min at room temperature, and eluate was neutralized with 2 μL 1M Tris pH 11. Samples were prepared for Western blot by addition of Laemmli buffer with 50 mM DTT and incubation at 95° C. for 5 min. Presence of MYB and CBP was identified by Western blot as described above.

Test [6] has as its system H3K27Ac-driven oncogenic enhancers. The test can be described thus: ChIP-seq of H3K27Ac enhancers in AML cells. In kind it is cell-based, human. The procedure: Chromatin immunoprecipitation and sequencing (ChIP-seq). Briefly, cells were fixed in 1% formalin in phosphate-buffered saline (PBS) for 10 minutes at room temperature. Glycine (125 mM final concentration) and Tris-HCl pH 8 (100 mM final concentration) was added to the cells and cells were washed twice in ice-cold PBS and resuspended in sodium dodecyl sulfate (SDS) lysis buffer (1% SDS, 10 mM EDTA, 50 mM Tris-HCl, pH 8.1). Lysates were sonicated using the Covaris […] adaptive focused sonicator to obtain 100-500 bp chromatin fragments (Covaris, Woburn, Calif.). Lysates containing sheared chromatin fragments were resuspended in 0.01% SDS, 1.1% Triton-X100, 1.2 mM EDTA, 16.7 mM Tris-HCl, pH 8.1, 167 mM NaCl. Lysates and antibody-coupled beads were incubated over night at 4° C. Precipitates were washed sequentially with Mixed Micelle Wash Buffer (15 ml 5M NaCl-150 mM Final, 10 ml 1M Tris-Cl pH 8.1, 5 ml 0.5M EDTA, pH 8.0, 40 ml 65% w/v sucrose, 1 ml 10% NaN3, 25 ml 20% Triton X-100, 10 ml 10% SDS, Add dH2O to 500 ml), LiCl washing solution (0.5% deoxycholic acid, 1 mM EDTA, 250 mM LiCl, 0.5% NP-40, 10 mM Tris-Cl pH 8.0, 0.2% NaN3) and then TBS buffer (20 mM Tris-Cl pH 7.4, 150 mM NaCl). Elution performed in elution buffer (1% SDS, 0.1 M NaHCO3). […] Libraries were sequenced on the Illumina HiSeq 2500 instruments, with 30 million 2×50 bp paired reads.

T1 sequence (Q92793 2-2442 limits assumed, one chain of several): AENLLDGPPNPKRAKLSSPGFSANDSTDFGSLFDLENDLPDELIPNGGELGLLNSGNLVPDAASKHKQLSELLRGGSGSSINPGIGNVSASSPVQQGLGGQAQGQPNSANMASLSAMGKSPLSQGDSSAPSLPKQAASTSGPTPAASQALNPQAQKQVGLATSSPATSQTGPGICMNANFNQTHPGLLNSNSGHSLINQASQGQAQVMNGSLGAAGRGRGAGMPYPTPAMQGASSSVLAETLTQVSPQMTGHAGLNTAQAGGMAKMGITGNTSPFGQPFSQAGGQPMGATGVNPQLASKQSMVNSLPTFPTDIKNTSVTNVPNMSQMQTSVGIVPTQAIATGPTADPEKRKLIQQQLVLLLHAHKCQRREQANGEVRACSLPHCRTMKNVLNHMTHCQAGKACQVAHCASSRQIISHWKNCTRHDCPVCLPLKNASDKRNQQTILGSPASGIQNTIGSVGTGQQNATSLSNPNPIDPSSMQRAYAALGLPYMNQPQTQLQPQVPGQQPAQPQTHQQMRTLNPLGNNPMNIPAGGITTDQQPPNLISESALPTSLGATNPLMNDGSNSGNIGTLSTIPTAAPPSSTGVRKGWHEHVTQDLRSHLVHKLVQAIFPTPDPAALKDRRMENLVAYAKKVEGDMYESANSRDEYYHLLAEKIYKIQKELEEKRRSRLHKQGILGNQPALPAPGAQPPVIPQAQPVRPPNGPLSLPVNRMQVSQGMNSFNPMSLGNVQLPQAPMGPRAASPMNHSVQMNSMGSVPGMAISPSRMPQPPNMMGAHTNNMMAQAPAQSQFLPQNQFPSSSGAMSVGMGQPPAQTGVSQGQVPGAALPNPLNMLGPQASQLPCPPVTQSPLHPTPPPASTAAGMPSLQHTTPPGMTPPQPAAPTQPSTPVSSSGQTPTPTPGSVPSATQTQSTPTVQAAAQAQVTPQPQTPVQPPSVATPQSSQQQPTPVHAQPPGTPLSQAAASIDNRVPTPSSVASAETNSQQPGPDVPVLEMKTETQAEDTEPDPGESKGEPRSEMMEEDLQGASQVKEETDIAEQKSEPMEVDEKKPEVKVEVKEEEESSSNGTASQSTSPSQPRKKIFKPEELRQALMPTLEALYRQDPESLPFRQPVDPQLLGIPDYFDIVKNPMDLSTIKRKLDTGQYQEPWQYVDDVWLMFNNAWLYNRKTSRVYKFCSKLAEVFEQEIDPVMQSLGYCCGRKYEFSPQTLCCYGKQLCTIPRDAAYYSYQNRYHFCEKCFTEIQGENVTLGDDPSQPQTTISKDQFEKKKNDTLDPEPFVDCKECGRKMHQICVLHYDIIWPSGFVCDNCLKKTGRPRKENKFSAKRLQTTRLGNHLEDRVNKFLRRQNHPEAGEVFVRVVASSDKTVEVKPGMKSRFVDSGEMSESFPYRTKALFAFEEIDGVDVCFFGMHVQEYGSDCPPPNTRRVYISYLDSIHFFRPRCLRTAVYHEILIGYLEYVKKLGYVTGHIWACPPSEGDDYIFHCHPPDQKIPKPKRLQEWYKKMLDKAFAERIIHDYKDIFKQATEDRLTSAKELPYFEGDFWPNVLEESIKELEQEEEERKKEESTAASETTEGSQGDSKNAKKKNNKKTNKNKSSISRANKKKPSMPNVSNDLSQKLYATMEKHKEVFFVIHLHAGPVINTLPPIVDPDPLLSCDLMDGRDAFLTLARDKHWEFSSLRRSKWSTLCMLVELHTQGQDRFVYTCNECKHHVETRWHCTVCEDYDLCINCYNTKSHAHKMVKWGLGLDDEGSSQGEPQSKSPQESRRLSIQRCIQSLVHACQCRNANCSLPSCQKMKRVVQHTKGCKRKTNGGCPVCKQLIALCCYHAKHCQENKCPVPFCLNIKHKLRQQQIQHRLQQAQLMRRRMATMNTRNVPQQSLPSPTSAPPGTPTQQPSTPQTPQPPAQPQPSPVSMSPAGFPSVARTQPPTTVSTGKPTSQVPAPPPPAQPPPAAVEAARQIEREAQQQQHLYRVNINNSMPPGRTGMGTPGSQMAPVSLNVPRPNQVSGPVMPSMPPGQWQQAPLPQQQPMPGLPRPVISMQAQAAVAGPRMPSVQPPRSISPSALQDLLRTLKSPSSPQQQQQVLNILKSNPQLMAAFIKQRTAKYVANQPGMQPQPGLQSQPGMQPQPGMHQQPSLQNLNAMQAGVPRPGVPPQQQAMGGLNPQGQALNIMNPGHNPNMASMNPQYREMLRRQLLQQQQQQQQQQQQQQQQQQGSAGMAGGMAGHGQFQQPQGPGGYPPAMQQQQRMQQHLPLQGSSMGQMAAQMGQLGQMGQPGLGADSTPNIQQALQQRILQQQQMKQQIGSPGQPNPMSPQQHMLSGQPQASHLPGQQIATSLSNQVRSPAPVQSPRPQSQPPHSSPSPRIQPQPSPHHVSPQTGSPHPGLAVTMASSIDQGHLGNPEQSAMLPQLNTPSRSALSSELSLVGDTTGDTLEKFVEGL

For `CC[C@@H](C)[C@@H](NC(=O)[C@@H](CCCCN)NC(=O)[C@@H](CCC(=O)O)NC(=O)[C@@H](CC(C)C)NC(=O)[C@@H](CCC(=O)O)NC(=O)[C@@H](CC(C)C)NC(=O)[C@@H](CC(C)C)NC(=O)[C@@H](CC(C)C)NC(=O)[C@@H](CCSC)NC(=O)[C@@H](CO)NC(=O)[C@H](NC(=O)[C@@H](CCC(=O)O)NC(=O)[C@@H](CC(N)=O)NC(=O)[C@@H](CCC(=O)O)NC(=O)[C@@H](CC(C)C)NC(=O)[C@@H](CCCCN)NC(C)=O)[C@H](C)O)C(=O)N[C@H](CCCNC(=N)N)C(=O)N[C@H](CCCCN)C(=O)NCC(=O)NCC(=O)N[C@H](CCCNC(=N)N)C(=O)N[C@H](CCCNC(=N)N)C(=O)N[C@H](CCCNC(=N)N)C(=O)N[C@H](CCC(N)=O)C(=O)N[C@H](CCCNC(=N)N)C(=O)N[C@H](CCCNC(=N)N)C(=O)N[C@H](CCCCN)C(=O)N[C@H](CCCCN)C(=O)N[C@H](CCCNC(=N)N)C(=O)NCC(=O)N[C@H](Cc1ccc(O)cc1)C(N)=O` [MYBMIM], in the test on MV411 cells [1], the “apoptosis (Annexin-V staining)” value was “induction of apoptosis”. For the same molecule, in test [2] (MV411 cells, MYBMIM vs control), the “MYC and BCL2 expression (volcano plot)” value is given as “significantly downregulated”. In addition, in test [2] (human AML cells, 6 hours, 20 μM, vs TG3 and control), the “MYB-dependent gene expression (RNA-seq)” value was “significant down-regulation”. Further, the “MYC and BCL2 mRNA expression as a percentage of GAPDH” value in test [3] is listed as “downregulation”. In the test on MV411 cells [4], the “rescue of peptide-induced apoptosis by ectopic Bcl2 expression (cell viability)” value is on record as “partial rescue”. The “leukemia burden in bone marrow (hCD45 staining)” value in test [5] is reported as “decrease in the leukemia burden”. Also, at MYB:CBP complex, the “MYB:CBP complex in cells” value is “displacement and dissociation of MYB:CBP complex”. Also, in test [6], the H3K27Ac-driven oncogenic enhancers entry is given as “obliteration”.
